Here are results for six compounds from ChEMBL document CHEMBL1201862, “PubChem BioAssay data set” (2004).

For assay [1], the target named is T1, Voltage-dependent T-type calcium channel subunit alpha-1H (Homo sapiens, UniProt O95180). As to the kind of experiment: Inhibitors of T-Type Calcium Channels. [Related pubchem assays (depositor defined):AID449739, AID463087, AID489005, AID493041, AID504579, AID504584, AID504619, AID504628]. Type of assay: functional.
Assay [2] deals with T1, Voltage-dependent T-type calcium channel subunit alpha-1H. Type of assay: functional.
Assay [3] has as its target NACHT, LRR and PYD domains-containing protein 3 (Homo sapiens, UniProt Q96P20). As to the kind of experiment: NALP3 inhibitors in yeast, dose response, luminescent (AID 488799). Type of assay: functional.
A short description of assay [4]: Luminescence Cell-Based Dose Retest to Confirm Activators of 5'UTR Stem-Loop Driven Alpha-Synuclein mRNA Translation in H4 Neuroglioblastoma Cells. [Related pubchem assays (depositor defined):AID1813, AID1829]. Type of assay: functional.
Assay [5] is described as follows: Luminescence Cell-Based Dose Response HTS to Identify Activators of Luciferase Translation or Activity in H4 […] Cells. [Related pubchem assays: 1829 (Project Summary), 1814 (Primary HTS)]. Type of assay: functional.
Assay [6] in a line: Luminescence Cell-Based Dose Response HTS to Identify Activators of Luciferase Translation or Activity in H4-C Neuroglioblastoma Cells. [Related pubchem assays: 1829 (Project Summary), 1814 (Primary HTS)]. Type of assay: functional.
Assay [7] has as its system H4. As to the kind of experiment: Luminescence Cell-Based Dose Response HTS to Identify Activators of 5'UTR Stem-Loop Driven Prion Protein mRNA Translation in H4 Neuroglioblastoma Cells. [Related pubchem assays: 1829 (Project Summary), 1814 (Primary HTS)]. Type of assay: functional. The settings on record: Homo sapiens.
Assay [8] is described as follows: Luminescence Cell-Based Dose Response HTS to Identify Activators of 5'UTR Stem-Loop Driven Prion Protein mRNA Translation in H4-C Neuroglioblastoma Cells. [Related pubchem assays: 1829 (Project Summary), 1814 (Primary HTS)]. Type of assay: functional.
Assay [9] can be described thus: Luminescence Cell-Based Dose Confirmation HTS to Identify Activators of 5'UTR Stem-Loop Driven Alpha-Synuclein mRNA Translation in H4 Neuroglioblastoma Cells. [Related pubchem assays: 1829 (Project Summary), 1814 (Primary HTS)]. Type of assay: functional.
Assay [10] deals with X-box-binding protein 1 (Homo sapiens, UniProt P17861). It is filed as functional, Cricetulus griseus.
Sequence of X-box-binding protein 1 (P17861 whole entry): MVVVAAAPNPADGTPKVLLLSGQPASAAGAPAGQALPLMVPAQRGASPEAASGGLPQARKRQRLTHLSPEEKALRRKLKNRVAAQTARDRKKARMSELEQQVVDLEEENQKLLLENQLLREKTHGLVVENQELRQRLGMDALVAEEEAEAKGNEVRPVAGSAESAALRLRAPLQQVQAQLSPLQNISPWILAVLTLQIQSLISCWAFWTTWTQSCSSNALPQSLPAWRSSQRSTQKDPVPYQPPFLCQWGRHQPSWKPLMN
Assay [11] concerns the target Melanin-concentrating hormone receptor 1 (Homo sapiens, UniProt Q99705). In words: Late-stage fluorescence-based counterscreen for antagonists of the G-protein coupled receptor 7 (GPR7): cell-based dose response assay to identify antagonists of the melanin-concentrating hormone receptor 1 (MCHR1). [Related pubchem assays (depositor defined):AID1861, AID1880, AID1952, AID2148, AID2251, AID2257, AID485339]. It is filed as functional. For orientation: Counterscreens check selectivity or assay interference.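 Also: stimulated with 30 nM MCH peptide agonist.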

Assay [12] has as its target T2, Neuropeptides B/W receptor type 1 (Homo sapiens, UniProt P48145).
T2 sequence (P48145 whole entry): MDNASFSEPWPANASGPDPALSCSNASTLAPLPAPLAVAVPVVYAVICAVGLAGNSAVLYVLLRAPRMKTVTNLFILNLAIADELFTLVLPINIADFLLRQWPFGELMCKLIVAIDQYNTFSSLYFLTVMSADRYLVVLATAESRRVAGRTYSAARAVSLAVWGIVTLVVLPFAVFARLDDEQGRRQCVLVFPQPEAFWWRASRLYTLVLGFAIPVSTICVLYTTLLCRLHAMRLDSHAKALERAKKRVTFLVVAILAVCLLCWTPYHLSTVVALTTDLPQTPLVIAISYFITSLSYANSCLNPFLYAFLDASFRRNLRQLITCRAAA
As to the kind of experiment: GPR7 antagonist potency, late-stage follow-up, cell-based, fluorescence, dose response (AID 463251). Type of assay: functional.

In assay [13] the target is T3, Scavenger receptor class B member 1 (Mus musculus, UniProt Q61009).
T3 sequence (Q61009 whole entry): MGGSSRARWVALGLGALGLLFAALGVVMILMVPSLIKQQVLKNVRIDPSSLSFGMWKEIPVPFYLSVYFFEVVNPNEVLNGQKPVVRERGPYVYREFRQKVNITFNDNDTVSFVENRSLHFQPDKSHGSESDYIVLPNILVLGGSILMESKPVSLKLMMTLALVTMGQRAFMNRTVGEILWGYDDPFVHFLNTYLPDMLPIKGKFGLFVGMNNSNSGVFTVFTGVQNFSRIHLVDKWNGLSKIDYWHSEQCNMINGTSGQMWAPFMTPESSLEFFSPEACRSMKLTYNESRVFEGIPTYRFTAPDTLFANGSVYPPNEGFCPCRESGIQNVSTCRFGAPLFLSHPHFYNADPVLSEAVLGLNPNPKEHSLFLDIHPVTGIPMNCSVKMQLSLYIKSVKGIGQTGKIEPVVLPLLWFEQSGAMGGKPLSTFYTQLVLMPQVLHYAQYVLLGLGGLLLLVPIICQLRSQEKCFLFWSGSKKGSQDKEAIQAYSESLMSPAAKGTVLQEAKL
As to the kind of experiment: inhibitors of SR-BI mediated HDL lipid uptake, dose response, ldlA[mSR-BI] cells, fluorescence, cherry pick (AID 493194).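 Also: cellular uptake of fluorescent DiI-labeled HDL measured as cell fluorescence.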 Type of assay: functional, cell-based.

Assay [14] has as its system CHO-K1. In words: Counterscreen for antagonists of the orexin 1 receptor (OX1R; HCRTR1): Homogeneous time resolved fluorescence (HTRF)-based cell-based dose response assay to identify antagonists of the parental CHO-K1 cell line. [Related pubchem assays (depositor defined):AID434989, AID435008, AID463079, AID485270, AID492963, AID492964, AID492965, AID493232, AID504699, AID504701]. It is filed as functional. The settings on record: Cricetulus griseus.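 Also: potency for inhibition of ATP-stimulated IP1 production as antagonists.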

The nature of assay [15]: Counterscreen for antagonists of the orexin 1 receptor (OX1R; HCRTR1): Fluorescence-based cell-based high throughput dose response assay to identify antagonists of the parental CHO cell line. [Related pubchem assays (depositor defined):AID434989, AID435008, AID463079, AID485270, AID492963, AID492964, AID492965, AID493232, AID504699, AID504701]. Type of assay: functional.

For assay [16], the target named is T4, Orexin/Hypocretin receptor type 1 (Homo sapiens, UniProt O43613).
T4 sequence (O43613 whole entry): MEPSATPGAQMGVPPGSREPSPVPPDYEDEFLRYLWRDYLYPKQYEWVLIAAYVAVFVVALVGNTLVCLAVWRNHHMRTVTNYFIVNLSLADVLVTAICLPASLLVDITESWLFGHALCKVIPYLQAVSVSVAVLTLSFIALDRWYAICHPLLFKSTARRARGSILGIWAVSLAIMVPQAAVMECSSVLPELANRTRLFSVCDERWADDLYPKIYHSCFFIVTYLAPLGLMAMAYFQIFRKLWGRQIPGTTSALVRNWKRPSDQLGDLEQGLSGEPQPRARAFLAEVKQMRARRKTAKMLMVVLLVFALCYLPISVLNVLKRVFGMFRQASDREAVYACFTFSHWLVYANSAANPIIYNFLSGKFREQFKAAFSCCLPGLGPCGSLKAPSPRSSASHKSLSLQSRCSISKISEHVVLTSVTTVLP
As to the kind of experiment: Fluorescence-based cell-based high throughput dose response assay for antagonists of the orexin 1 receptor (OX1R; HCRTR1). [Related pubchem assays (depositor defined):AID434989, AID435008, AID463079, AID485270, AID492963, AID492964, AID492965, AID493232, AID504717, AID504718]. Type of assay: functional.

Assay [17] deals with T4, Orexin/Hypocretin receptor type 1. As to the kind of experiment: Homogeneous Time Resolved Fluorescence (HTRF)-based cell-based high throughput dose response assay for antagonists of the orexin 1 receptor (OX1R; HCRTR1). [Related pubchem assays (depositor defined):AID434989, AID435008, AID463079, AID485270, AID492963, AID492964, AID492965, AID493232, AID504717, AID504718]. Type of assay: functional. (In general: In TR-FRET formats the signal depends on donor and acceptor labels being close together.)

Assay [18] addresses T5, Cytochrome P450 1A2 (Homo sapiens, UniProt P05177).
T5 sequence (P05177 whole entry): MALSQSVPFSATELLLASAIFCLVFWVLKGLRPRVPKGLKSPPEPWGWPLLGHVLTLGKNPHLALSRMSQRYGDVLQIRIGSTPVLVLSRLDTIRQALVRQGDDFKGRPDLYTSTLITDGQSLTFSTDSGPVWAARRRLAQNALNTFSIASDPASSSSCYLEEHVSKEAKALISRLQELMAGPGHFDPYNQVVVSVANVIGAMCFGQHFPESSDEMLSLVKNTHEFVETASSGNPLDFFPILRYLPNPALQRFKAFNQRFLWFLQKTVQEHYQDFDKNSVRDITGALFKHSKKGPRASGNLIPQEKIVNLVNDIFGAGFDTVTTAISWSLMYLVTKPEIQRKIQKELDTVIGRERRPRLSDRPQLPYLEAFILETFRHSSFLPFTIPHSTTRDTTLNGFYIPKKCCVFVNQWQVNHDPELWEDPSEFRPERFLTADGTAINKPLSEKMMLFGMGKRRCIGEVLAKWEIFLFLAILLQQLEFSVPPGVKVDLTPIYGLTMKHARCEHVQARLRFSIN

Calls of active or inactive are those of the source.
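For Absolute IC50 (XBP1) in this document: confirmatory dose-response counter-screen serving a CHOP assay.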

T1 sequence (O95180 whole entry): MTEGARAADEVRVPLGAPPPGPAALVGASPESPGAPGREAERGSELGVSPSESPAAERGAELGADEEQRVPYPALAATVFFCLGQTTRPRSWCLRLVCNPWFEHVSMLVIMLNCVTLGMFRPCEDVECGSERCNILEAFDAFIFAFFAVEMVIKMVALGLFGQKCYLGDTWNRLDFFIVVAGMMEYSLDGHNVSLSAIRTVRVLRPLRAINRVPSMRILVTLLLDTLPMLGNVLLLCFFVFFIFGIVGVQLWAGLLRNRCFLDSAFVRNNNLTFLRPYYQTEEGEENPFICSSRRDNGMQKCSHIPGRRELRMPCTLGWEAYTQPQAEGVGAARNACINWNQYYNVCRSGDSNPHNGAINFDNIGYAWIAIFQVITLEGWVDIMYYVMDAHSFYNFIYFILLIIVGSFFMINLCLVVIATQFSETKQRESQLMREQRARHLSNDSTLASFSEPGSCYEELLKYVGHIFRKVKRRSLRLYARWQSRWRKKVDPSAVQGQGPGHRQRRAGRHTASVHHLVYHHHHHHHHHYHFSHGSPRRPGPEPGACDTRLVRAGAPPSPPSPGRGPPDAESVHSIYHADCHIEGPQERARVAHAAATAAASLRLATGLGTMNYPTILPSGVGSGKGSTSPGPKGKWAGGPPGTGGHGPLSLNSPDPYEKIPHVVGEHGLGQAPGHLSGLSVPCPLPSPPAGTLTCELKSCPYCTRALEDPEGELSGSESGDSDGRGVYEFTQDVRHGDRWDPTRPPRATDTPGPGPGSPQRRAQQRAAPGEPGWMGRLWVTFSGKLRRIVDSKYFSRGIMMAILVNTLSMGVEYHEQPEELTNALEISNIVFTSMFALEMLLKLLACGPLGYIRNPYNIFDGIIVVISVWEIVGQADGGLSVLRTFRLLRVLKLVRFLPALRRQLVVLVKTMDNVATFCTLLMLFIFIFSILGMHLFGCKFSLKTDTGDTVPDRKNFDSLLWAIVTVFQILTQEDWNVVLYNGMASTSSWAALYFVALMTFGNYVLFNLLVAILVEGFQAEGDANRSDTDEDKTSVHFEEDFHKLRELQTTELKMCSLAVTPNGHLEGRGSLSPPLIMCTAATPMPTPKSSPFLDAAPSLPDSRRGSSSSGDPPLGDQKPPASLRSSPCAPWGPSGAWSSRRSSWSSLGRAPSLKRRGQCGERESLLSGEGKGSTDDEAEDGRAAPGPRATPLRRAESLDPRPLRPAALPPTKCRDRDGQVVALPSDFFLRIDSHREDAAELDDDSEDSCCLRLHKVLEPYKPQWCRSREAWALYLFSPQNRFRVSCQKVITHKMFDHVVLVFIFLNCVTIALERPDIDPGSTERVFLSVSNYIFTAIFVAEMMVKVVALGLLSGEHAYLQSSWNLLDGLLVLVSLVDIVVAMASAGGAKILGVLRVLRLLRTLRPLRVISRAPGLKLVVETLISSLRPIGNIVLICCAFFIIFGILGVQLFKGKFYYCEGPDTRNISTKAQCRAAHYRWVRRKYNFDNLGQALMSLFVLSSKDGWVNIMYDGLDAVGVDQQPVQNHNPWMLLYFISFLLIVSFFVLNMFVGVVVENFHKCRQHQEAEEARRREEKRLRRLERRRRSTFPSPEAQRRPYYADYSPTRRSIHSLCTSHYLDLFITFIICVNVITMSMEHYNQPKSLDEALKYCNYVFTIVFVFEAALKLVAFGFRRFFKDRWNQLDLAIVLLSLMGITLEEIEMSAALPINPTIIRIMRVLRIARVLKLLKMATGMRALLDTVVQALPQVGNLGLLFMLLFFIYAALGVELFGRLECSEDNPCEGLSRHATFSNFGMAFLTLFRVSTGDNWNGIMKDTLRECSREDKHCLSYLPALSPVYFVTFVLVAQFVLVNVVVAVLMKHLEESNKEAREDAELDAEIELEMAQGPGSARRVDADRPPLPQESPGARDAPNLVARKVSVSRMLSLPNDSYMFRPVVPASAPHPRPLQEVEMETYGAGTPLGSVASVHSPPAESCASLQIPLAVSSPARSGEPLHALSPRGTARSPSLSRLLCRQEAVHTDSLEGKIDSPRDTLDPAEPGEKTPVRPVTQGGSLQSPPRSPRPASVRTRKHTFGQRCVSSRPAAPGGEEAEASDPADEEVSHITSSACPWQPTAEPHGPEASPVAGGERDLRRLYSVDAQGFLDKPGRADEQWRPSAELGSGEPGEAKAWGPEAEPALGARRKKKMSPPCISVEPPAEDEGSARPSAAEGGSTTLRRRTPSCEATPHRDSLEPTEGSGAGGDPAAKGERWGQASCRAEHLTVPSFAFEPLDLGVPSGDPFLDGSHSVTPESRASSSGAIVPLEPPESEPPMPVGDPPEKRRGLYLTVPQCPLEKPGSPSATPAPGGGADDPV
Sequence of Melanin-concentrating hormone receptor 1 (Q99705 whole entry): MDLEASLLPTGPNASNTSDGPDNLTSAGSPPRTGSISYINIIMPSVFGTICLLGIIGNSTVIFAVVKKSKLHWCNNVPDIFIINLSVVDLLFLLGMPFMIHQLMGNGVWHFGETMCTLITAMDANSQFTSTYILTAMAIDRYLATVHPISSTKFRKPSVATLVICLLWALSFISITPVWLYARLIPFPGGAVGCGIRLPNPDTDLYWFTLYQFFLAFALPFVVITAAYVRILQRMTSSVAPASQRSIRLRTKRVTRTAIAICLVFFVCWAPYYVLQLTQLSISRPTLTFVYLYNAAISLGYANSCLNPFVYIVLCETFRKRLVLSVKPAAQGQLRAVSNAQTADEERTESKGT
Sequence of NACHT, LRR and PYD domains-containing protein 3 (Q96P20 whole entry, the tested form may be a part): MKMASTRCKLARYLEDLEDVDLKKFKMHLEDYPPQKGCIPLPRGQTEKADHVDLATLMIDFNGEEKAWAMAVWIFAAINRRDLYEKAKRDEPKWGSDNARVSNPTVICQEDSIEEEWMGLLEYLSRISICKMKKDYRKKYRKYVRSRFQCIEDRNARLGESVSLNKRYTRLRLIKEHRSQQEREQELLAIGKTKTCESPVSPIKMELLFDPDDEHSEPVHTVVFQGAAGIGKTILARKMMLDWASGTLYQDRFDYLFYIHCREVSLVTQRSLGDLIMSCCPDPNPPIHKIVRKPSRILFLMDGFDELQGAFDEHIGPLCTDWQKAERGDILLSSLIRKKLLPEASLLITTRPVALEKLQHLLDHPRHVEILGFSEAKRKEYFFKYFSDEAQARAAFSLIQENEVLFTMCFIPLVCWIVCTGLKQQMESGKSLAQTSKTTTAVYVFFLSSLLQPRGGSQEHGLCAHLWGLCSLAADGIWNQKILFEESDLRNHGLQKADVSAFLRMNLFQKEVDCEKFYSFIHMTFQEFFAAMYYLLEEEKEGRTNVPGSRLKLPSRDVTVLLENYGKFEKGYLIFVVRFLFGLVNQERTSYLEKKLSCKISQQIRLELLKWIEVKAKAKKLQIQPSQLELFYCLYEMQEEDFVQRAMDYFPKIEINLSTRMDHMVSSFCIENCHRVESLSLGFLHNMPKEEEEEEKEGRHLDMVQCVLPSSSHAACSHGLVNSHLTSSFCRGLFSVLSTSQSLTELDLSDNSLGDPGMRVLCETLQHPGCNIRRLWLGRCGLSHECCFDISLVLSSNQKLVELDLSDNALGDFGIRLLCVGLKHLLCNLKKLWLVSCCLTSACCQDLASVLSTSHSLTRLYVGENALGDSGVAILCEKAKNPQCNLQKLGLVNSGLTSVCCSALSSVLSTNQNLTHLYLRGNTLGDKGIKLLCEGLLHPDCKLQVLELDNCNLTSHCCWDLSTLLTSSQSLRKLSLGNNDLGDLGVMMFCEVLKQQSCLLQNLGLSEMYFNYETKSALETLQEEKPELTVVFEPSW

As usually defined, the EC50 is the concentration that produces a half-maximal response. Take `O=S(=O)(NCc1ccccc1)c1ccc(S(=O)(=O)N(Cc2ccccn2)C2CCCC2)cc1`: the EC50 in assay [1] was 2.35 µM (active); in [2], 3.02 µM (active).

What is called IC50 is the concentration that gives 50% inhibition. Take `CC(C)NC(=O)c1c(O)c2ccccc2[nH]c1=O`: in assay [3], the IC50 was 13.1 µM (active).

Regarding `Cc1ccc(NC(=O)c2ccc3snnc3c2)cc1`, the EC50 in [4] was 0.885 µM (active); in [5], 6.57 µM (active); in assay [6] it was 1.88 µM (active); in assay [7] it was > 120 µM (not active); in [8], 0.185 µM (active); in assay [9], 2.76 µM (active).

Regarding `CC(C)c1ccc(NC(=O)CSc2[nH]c(-c3ccccc3F)nc3ncnc2-3)cc1`, the “Absolute IC50 (XBP1)” value in assay [10] is 10 µM.

As for `CC(C)c1ccc(-n2ncc(Cl)c(Oc3ccc(Cl)cc3)c2=O)cc1`, the IC50 in assay [11] was 5.7 µM (active); in assay [12], 1.4 µM (active).

Usually AC50 stands for the midpoint of the concentration-response curve, whichever way the signal moves. Regarding `O=C(Nc1cccc(NC(=O)N2CCN(c3ccccc3)CC2)c1)N1CCN(c2ccccc2)CC1`, the concentration at half-maximal activity (AC50) in assay [13] is 48.9 µM (active); in assay [18] it was 15.8 µM (inconclusive). Moreover, the IC50 in [14] was > 66.2 µM (inactive); in assay [15], 25.1 µM (inactive); in assay [16], 11 µM (inactive); in [17], 10.4 µM (inactive).
